In one experiment the test system is gut microbiota. Description: Gut microbiome composition (fecal DGGE cluster analysis) in rats on high-fat diet. Type of experiment: in vivo, Sprague-Dawley rats. The note with it: daily oral gavage in peanut oil for 8 weeks, carotenoids 10-50 pg/d, lutein 25 μg/d, vs HF controls. The source says:
To evaluate the effect of carotenoids from PD01 on gut microbiome composition in vivo, male Sprague-Dawley rats of 90 days of age were daily dosed for 8 weeks with carotenoids from PD01, either as carotenoid extract or as carotenoids contained in spores or vegetative cells. The experiment consisted of administration of a high-fat (HF) diet to the animals, which mimics a standardized western diet and is associated with the development of metabolic syndrome within 8 weeks of administration. In addition to a HF control group, separate groups of animals received the HF diet in combination with one of the carotenoid formulations from PD01. To do this, the carotenoid formulations were suspended in peanut oil and given by oral gavage to the rats in addition to the HF diet. The corresponding daily dose of carotenoids was in the range of […]. A control group receiving a standard low-fat (LF) diet was included to allow assessment of the specific effect of the HF diet on the gut microbiome composition. Additionally, one extra HF group was included, receiving the plant-derived carotenoid lutein, in the same amount as the bacterial carotenoids (i.e. 25 μg/d). This allows comparison of the effect of bacterial vs. plant-derived carotenoids on the gut microbiome composition. To monitor the effects of the different formulations on the gut microbiota, DGGE profiles were prepared. […]

The test system of experiment [1] is Caco-2/THP1XB co-cultures. Kind of experiment: Gut barrier function: TEER in Caco-2/THP1XB co-cultures (transwell). In kind it is cell-based. The note with it: 18 h after treatment of Caco-2/THP1XB co-cultures. The source says:
The effect on the host of the carotenoids from PD01 (derived from either vegetative cells or spores) on gut barrier function, was studied in Caco-2/THP1XB co-cultures, according to methods described in Possemiers et al. (2013, J Agric Food Chem 61). Endpoint of the measurement was a change from control in the transepithelial electrical resistance (TEER) in a transwell setup.

Each structure is given as a SMILES string.

With `CC1=C[C@H](O)CC(C)(C)[C@H]1/C=C/C(C)=C/C=C/C(C)=C/C=C/C=C(C)/C=C/C=C(C)/C=C/C1=C(C)C[C@@H](O)CC1(C)C` [lutein], the “gut microbiome composition (DGGE cluster analysis of fecal samples)” value in the experiment with gut microbiota is “clustered together with those of the HF controls”. On to `Cc1c(C)c2c(c(C)c1O)CC[C@@](C)(CCC[C@H](C)CCC[C@H](C)CCCC(C)C)O2` [α-tocopherol], for which the “transepithelial electrical resistance (TEER), change from control” value in experiment [1] was “did not induce protection”.

(Values after patent US11324717B2, “Microbial carotenoids affecting gut microbial composition” (Microbial Research Management Health NV, priority 2016, dated 2022).)
